Results as given in ChEMBL document CHEMBL1201862, “PubChem BioAssay data set” (2004).
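96-well plates; 48 h exposure; 5 concentrations. Endpoints by linear interpolation between flanking doses. Not reached: highest tested concentration assigned. GI50 = concentration required for 50% inhibition of growth.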 Calls of active or inactive are those of the source. Rule as the data show it: active = GI50 up to about 1.1 µM and inactive = higher.

Experiments:
Test in all cases: DTP human tumour cell line panel, 48 h
[1] = system: LXFL 529
[2] = system: Malme-3M
[3] = system: NCI-H460
[4] = system: CAKI-1
[5] = system: DMS-114
[6] = system: SR
[7] = system: 786-0
[8] = system: UACC-257
[9] = system: OVCAR-4
[10] = system: RXF 631
[11] = system: NCI-H522
[12] = system: RPMI-8226
[13] = system: M14
[14] = system: SF-295
[15] = system: HOP-92
[16] = system: HOP-18
[17] = system: HCC 2998
[18] = system: SW-620
[19] = system: SF-539
[20] = system: HOP-62
[21] = system: M19-MEL
[22] = system: DLD-1
[23] = system: UACC-62
[24] = system: HT-29
[25] = system: XF498
[26] = system: SK-MEL-2
[27] = system: SNB-19
[28] = system: SNB-78
[29] = system: NCI-H23
[30] = system: CCRF-CEM
[31] = system: OVCAR-5
[32] = system: NCI-H226
[33] = system: IGROV-1
[34] = system: UO-31
[35] = system: KM12
[36] = system: RXF 393
[37] = system: EKVX
[38] = system: TK-10
[39] = system: A549
[40] = system: HL-60
[41] = system: HCT-116
[42] = system: SN12C
[43] = system: K562
[44] = system: A498
[45] = system: U-251
[46] = system: ACHN
[47] = system: SK-MEL-5
[48] = system: SF-268
[49] = system: SNB-75
[50] = system: COLO 205
[51] = system: MOLT-4
[52] = system: OVCAR-8
[53] = system: DMS-273
[54] = system: OVCAR-3
[55] = system: SK-OV-3
[56] = system: KM-20L2
[57] = system: HCT-15
[58] = system: SK-MEL-28
[59] = system: LOX IMVI

Measured: GI50

Cn1cnc2[nH]c(=O)[nH]c(=S)c21
> 100 µM: [57]
inactive: [1] > 100 µM | [2] > 100 µM | [3] > 100 µM | [4] > 100 µM | [5] > 100 µM | [6] > 100 µM | [7] > 100 µM | [8] > 100 µM | [9] > 100 µM | [10] > 100 µM | [11] > 100 µM | [12] > 100 µM | [13] > 100 µM | [14] > 100 µM | [15] > 100 µM | [16] > 100 µM | [17] > 100 µM | [18] > 100 µM | [19] > 100 µM | [20] > 100 µM | [21] > 100 µM | [22] > 100 µM | [23] > 100 µM | [24] > 100 µM | [25] > 100 µM | [26] > 100 µM | [27] > 100 µM | [28] > 100 µM | [29] > 100 µM | [30] > 100 µM | [31] > 100 µM | [32] > 100 µM | [33] > 100 µM | [34] > 100 µM | [35] > 100 µM | [36] > 100 µM | [37] > 100 µM | [38] > 100 µM | [39] > 100 µM | [40] > 100 µM | [41] > 100 µM | [42] > 100 µM | [43] > 100 µM | [44] > 100 µM | [45] > 100 µM | [46] > 100 µM | [47] > 100 µM | [48] > 100 µM | [49] > 100 µM | [50] > 100 µM | [51] > 100 µM | [52] > 100 µM | [53] > 100 µM | [54] > 100 µM | [55] > 100 µM | [56] > 100 µM

COC(=O)C1Cc2c([nH]c3ccccc23)C(c2ccccc2O)N1Cc1ccccc1 (stereo not drawn)
> 46.5 µM: [57]
inactive: [1] 31.5 µM | [2] > 31.6 µM | [3] 30.8 µM | [4] 22.2 µM | [5] 19.8 µM | [6] 28.4 µM | [7] 20.7 µM | [8] 33.7 µM | [58] > 31.6 µM | [9] 24.4 µM | [10] 21.2 µM | [11] 16.4 µM | [12] > 100 µM | [13] 38.4 µM | [14] 21 µM | [15] 22.6 µM | [16] 31.6 µM | [17] > 31.6 µM | [18] 39.5 µM | [19] 27.8 µM | [20] 41.2 µM | [59] 44.9 µM | [21] 40.6 µM | [22] 74 µM | [23] 25.4 µM | [24] 28.2 µM | [26] 21.8 µM | [27] > 31.6 µM | [28] 34 µM | [29] 44.3 µM | [30] > 46.5 µM | [31] > 46.5 µM | [32] 35.7 µM | [33] 25.5 µM | [34] 31 µM | [35] > 31.6 µM | [36] 20.8 µM | [37] > 31.6 µM | [38] 34.3 µM | [39] 32 µM | [40] > 46.5 µM | [41] 23.3 µM | [42] 36 µM | [43] 37.5 µM | [44] 28.9 µM | [45] 20.6 µM | [46] 28.4 µM | [47] 27.2 µM | [48] 26.4 µM | [49] 7.05 µM | [50] 41.7 µM | [51] 42.1 µM | [52] 29.4 µM | [53] 23.8 µM | [54] 27.7 µM | [55] 30.8 µM | [56] > 46.5 µM

CC1Nc2ccccc2NC1C=C(C#N)C#N (stereo not drawn)
inactive: [1] 13 µM | [2] 16.7 µM | [3] 19.4 µM | [4] 14.1 µM | [5] 19.8 µM | [6] 5.61 µM | [7] 16 µM | [8] > 10 µM | [58] 16.6 µM | [9] 15.9 µM | [10] 11.9 µM | [11] 10.9 µM | [12] 4.58 µM | [13] 11.9 µM | [14] 15.5 µM | [15] 15.1 µM | [16] 20 µM | [17] 18.4 µM | [18] 12.2 µM | [19] 13.2 µM | [20] 20.4 µM | [59] 11.3 µM | [21] 15 µM | [22] 14.4 µM | [23] 16.1 µM | [24] 16.7 µM | [25] 17.1 µM | [26] 21.3 µM | [27] 17.9 µM | [28] 15.3 µM | [29] 17.2 µM | [30] 2.72 µM | [31] 18.9 µM | [32] 17.3 µM | [33] 18.1 µM | [34] 15 µM | [35] 16.5 µM | [36] 16.6 µM | [37] 19.5 µM | [38] 19.6 µM | [39] 22.8 µM | [40] 1.85 µM | [41] 13.5 µM | [42] 15.6 µM | [43] 8.32 µM | [45] 16.1 µM | [46] 18.3 µM | [47] 17.1 µM | [48] 14.7 µM | [49] 14.6 µM | [50] 18.7 µM | [51] 5.96 µM | [52] 7.76 µM | [53] 12.2 µM | [54] 15.8 µM | [55] 21.8 µM | [56] 16.3 µM
17.4 µM: [57]

CSc1ccc(/C=C2/C[N+](C)(C)C/C(=C/c3ccc(SC)cc3)C2=O)cc1
active: [23] 0.168 µM | [33] 0.185 µM
47 µM: [57]
inactive: [2] 4.16 µM | [5] 6.44 µM | [6] 8.57 µM | [7] 13.7 µM | [8] 15.8 µM | [58] 8.09 µM | [10] 35.2 µM | [11] 7.36 µM | [12] 2.93 µM | [13] 13.5 µM | [14] 27.2 µM | [15] 24.5 µM | [16] 31.8 µM | [17] 15.5 µM | [18] 12.2 µM | [19] 17.7 µM | [21] 6.25 µM | [22] 7.78 µM | [25] 15.7 µM | [26] 20.1 µM | [28] 62.2 µM | [29] > 10 µM | [30] 3.56 µM | [31] 23.4 µM | [32] 32.1 µM | [34] > 100 µM | [35] 4.85 µM | [36] 17 µM | [37] 19.1 µM | [38] 50.7 µM | [39] 21.9 µM | [40] 2.49 µM | [42] 7.89 µM | [43] 5.47 µM | [45] 2.54 µM | [46] 18 µM | [48] 10.5 µM | [49] 6.52 µM | [50] 5.18 µM | [51] 5.31 µM | [52] 8.89 µM | [54] 15.9 µM
